Measurements from patent publication US10736888B2, “Triple combination” (HELPERBY THERAPEUTICS LIMITED, priority 2015, dated 2020).

How the values were obtained:
S. aureus on pig skin = assay: antimicrobial activity against S. aureus on pig skin (swab, CFU counting, log kill); assay type: cell-based, Staphylococcus aureus (Oxford); conditions: Example 3; 2 hours after application; inoculum 7.6 (7.62 = complete kill)
Experimental: Staphylococcus aureus (Oxford); Gram positive; Reference strain.
Bacterial cultures were prepared by inoculation of 10 ml of nutrient broth with a single colony of bacteria on blood agar or TSA and incubated at 37° C. with continuous shaking at 100 rpm for 16 to 24 hours. The overnight cultures were used for experimental tests.
For CFU counting, the bacterial suspensions were diluted using sterile deionized water or phosphate-buffered saline (PBS, Sigma Aldrich Ltd, Poole, Dorset, UK). 100 μl of 10-fold serial dilutions of bacteria culture were plated on one third of TSA plates in triplicate and incubated 24 to 48 hours at 37° C. The number of cells presented on the plates was counted using an AcoLyte colony counter (Synbiosis) and results were expressed as Colony Forming Units/ml (CFU/ml).
The efficacy of each of the above formulations F017A, F017B and F019 was assessed against S. aureus on pig skin. The S. aureus culture was grown overnight according to methods known in the art. The overnight culture was then spread on pig skin: 40 μl of culture was used for 2 cm^3 of pig skin. Each of the formulations F017A, F017B and F019 was then applied to the pig skin.
After 2 hours and 5 hours from application of each formulation, the pig skin was swabbed and bacteria on the swab were processed for CFU counting. The results for F017A, F017B and F019 against a control experiment (where no triple combination was applied to the pig skin) and against commercially available products Bactroban® cream (mupirocin) and Naseptin® (chlorhexidine and neomycin) are shown in FIG. 1.
The efficacy of each of the above formulations F017A, F017B and F019 was again assessed against S. aureus on pig skin. The S. aureus culture was grown overnight according to methods known in the art. The overnight culture was then spread on pig skin: 40 μl of culture was used for 2 cm^3 of pig skin. […]
The efficacy of each of the above formulations F017A, F022A, F022B, F022C, F022D, F022E, F022F, and F022G was assessed against S. aureus on pig skin. […]

[1] = system: clinically latent microorganisms; assay: screening for ability to kill clinically latent microorganisms (WO2000028074 method); assay type: cell-based
Source text: International Patent Application, Publication Number WO2000028074 describes a method of screening compounds to determine their ability to kill clinically latent microorganisms. […] This observation has necessitated the development of novel antimicrobials which may be used to kill clinically latent microorganisms.
By way of example, WO2000028074 describes a suitable method of screening compounds to determine their ability to kill clinically latent microorganisms. A typical method may include the following steps: • (1) growing a bacterial culture to stationary phase; • (2) treating the stationary phase culture with one or more antimicrobial agents at a concentration and or time sufficient to kill growing bacteria, thereby selecting a phenotypically resistant sub-population; • (3) incubating a sample of the phenotypically resistant subpopulation with one or more test compounds or agents; and • (4) assessing any antimicrobial effects against the phenotypically resistant subpopulation.

Compound | Log Kill 2 h (S. aureus on pig skin) | activity against clinically latent microorganisms [1]
Cc1nc2ccc(Oc3ccccc3)cc2c2c1CCN2CCc1ccccc1 [HT61, 4-methyl-8-phenoxy-1-(2-phenylethyl)-2,3-dihydro-1H-pyrrolo[3,2-c]quinoline] | 1.87 | –
neomycin | 4.56 | little or no activity
C/C(=C\C(=O)OCCCCCCCCC(=O)O)C[C@@H]1OC[C@H](C[C@@H]2O[C@H]2[C@@H](C)[C@H](C)O)[C@@H](O)[C@H]1O [mupirocin] | 0.49 | little or no activity
